In patent US12144344B2, “Compositions and methods for modulating root growth” (DUKE UNIVERSITY, priority 2018, dated 2024):

What was measured:
[1] = test system: lateral root clock (pDR5:LUC); test: Lateral root clock oscillation amplitude (pDR5:LUC reporter); type: in vivo, Arabidopsis thaliana; conditions: for amplitude of the lateral root clock relative to D15 treatment (rescue of D15 inhibition of lateral root initiation): roots treated with D15 for several days, then 10 μM apocarotenoid added, FIG. 4A
Arabidopsis thaliana = test: Root phenotyping: primary root growth, lateral root capacity/branching, lateral root primordia; type: in vivo
Arabidopsis roots = test: Merocyanine aldehyde RBP reporter fluorescence in Arabidopsis roots; type: in vivo, Arabidopsis thaliana; conditions: D15 treatment
Arabidopsis tissue = test: Extraction, derivatization and HPLC-MS analysis of apocarotenoid levels in plant tissue upon D15 treatment; type: in vivo, Arabidopsis thaliana; conditions: D15 treated plants, whole plant; FIG. 2B
CCD8 = target: T1, CCD8 (Arabidopsis thaliana, UniProt Q8VY26); conditions: stated as known; cited from earlier work
T1 sequence (Q8VY26 57-570): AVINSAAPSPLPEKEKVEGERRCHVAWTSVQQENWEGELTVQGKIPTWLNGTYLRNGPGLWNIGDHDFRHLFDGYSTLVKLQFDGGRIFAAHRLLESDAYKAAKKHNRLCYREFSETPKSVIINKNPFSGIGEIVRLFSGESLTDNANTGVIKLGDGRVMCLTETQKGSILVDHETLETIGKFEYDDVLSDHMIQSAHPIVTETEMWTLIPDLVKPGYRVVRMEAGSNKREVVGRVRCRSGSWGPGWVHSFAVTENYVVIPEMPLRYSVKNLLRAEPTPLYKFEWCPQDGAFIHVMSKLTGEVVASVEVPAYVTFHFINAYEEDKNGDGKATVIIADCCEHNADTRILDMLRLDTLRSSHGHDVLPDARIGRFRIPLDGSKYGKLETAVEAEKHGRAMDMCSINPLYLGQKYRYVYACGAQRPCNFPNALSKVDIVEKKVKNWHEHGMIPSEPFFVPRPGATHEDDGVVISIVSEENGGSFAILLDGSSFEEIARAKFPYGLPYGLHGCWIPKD

[2] = co-treatment with 500 nM Apo14 and D15, FIG. 4B
[3] = co-treatment with 1 μM retinal and 125 μM D15, FIG. 4C

Compound: CC1=C(/C=C/C(C)=C/C=C/C(C)=C/C=C/C=C(\C)C=O)C(C)(C)CCC1 [apo-12-carotenal]
- amplitude of the lateral root clock relative to D15 treatment (rescue of D15 inhibition of lateral root initiation) [1]: partially rescue

Compound: CC1=C(/C=C/C(C)=C/C=C/C(C)=C/C=C/C=O)C(C)(C)CCC1 [Apo14, apo-14-carotenal]
- rescue of D15 inhibition of lateral root development (lateral root capacity) (Arabidopsis thaliana; [2]): fully rescue
- rescue of D15 inhibition of primary root growth (Arabidopsis thaliana; [2]): fully rescue
- amplitude of the lateral root clock relative to D15 treatment (rescue of D15 inhibition of lateral root initiation) [1]: significantly increased

Compound: CC1=C(/C=C/C(C)=C/C=C/C(C)=C/C=C/C=C(C)/C=C/C=O)C(C)(C)CCC1 [Apo-10-carotenal, apo-10-carotenal]
- amplitude of the lateral root clock relative to D15 treatment (rescue of D15 inhibition of lateral root initiation) [1]: partially rescue

Compound: N-(4-fluorobenzyl)-methoxycinnamic hydroxamic acid [D15]
- merocyanine aldehyde fluorescence in the root meristem (Arabidopsis roots): reduced
- number of merocyanine aldehyde pulses (Arabidopsis roots; elongation and differentiation zones, FIG. 1E): significantly reduced
- levels of more hydrophilic apocarotenoids such as beta-cyclocitral and beta-ionone (Arabidopsis tissue): did not affect
- levels of retinal as well as the related apocarotenoids (Arabidopsis tissue): reduced
- CCD8 inhibition (CCD8): can inhibit
- root growth and lateral root organogenesis (Arabidopsis thaliana; D15 treatment): defects
- amplitude of oscillations in pDR5:LUC marker line ([1]; D15-treated plants, FIG. 3): significantly decreased

Compound: CC1=C(/C=C/C(C)=C/C=C/C(C)=C/C=O)C(C)(C)CCC1 [retinal, apo-16-carotenal]
- rescue of D15 inhibition of lateral root development (lateral root branching) (Arabidopsis thaliana; [3]): fully rescue
- rescue of D15 inhibition of primary root growth (Arabidopsis thaliana; [3]): fully rescue
- primary root length (Arabidopsis thaliana; retinal alone, absence of D15): did not affect
- number of lateral root primordia (Arabidopsis thaliana; retinal alone, absence of D15, FIG. 4D): significantly increase
- amplitude of the lateral root clock relative to D15 treatment (rescue of D15 inhibition of lateral root initiation) [1]: significantly increased
